The text below walks through data of patent US20170071967A1, “IMMUNOGENIC LIPOSOMAL FORMULATION” (GlaxoSmithKline Biologicals, SA, priority 2014, published 2017).

For this data set, the system named is rabbits. As to the kind of experiment: Rabbit pyrogenicity test (surrogate measure of incorporation into liposomes). Type of data set: in vivo. The settings on record: free (non-liposomal) CRX-601. The procedure:
The tests were performed at Pacific Biolabs (Hercules, Calif.) as per their SOP 16E-02.

With `CCCCCCCCCCC[C@H](CC(=O)N[C@H]1[C@H](OC[C@H](NC(=O)C[C@@H](CCCCCCCCCCC)OCCCCCCCCCC)C(=O)O)O[C@H](CO)[C@@H](OP(=O)(O)O)[C@@H]1OC(=O)C[C@@H](CCCCCCCCCCC)OCCCCCCCCCC)OCCCCCCCCCC` [CRX-601], the max non-pyrogenic dose amounted to 0.0025 µg/kg.
